From patent publication US8329640B2, “Peptides with improved properties having the biological activity of vasoactive intestinal peptide (VIP) and their use for the treatment of lung diseases” (priority 2007, dated 2012)
Where “and” joins values, the source holds several entries; their conditions need not be identical. Equal values may be shown once. No end group written: not given here.

What was measured:
PASMC = assay: cAMP measurement in PASMC (cyclic AMP ELISA); assay type: cell-based; conditions: for cAMP +/− SD: 20 min; for cyclic AMP content of PASMC, effect in words: analogues compared with VIP
Protocol: Effects of VIP and the peptides according to the invention are mediated by specific G-protein coupled receptors. Three distinct receptor subtypes, with differing affinity for the peptides, have been cloned and characterized as receptors 1 and 2 (VPAC1 and VPAC2) and pituitary adenylate cyclase activating polypeptide receptor (PAC1). The secondary messenger is cyclic adenosine mono phosphate (CAMP). […] Cells derived from pulmonary artery (PASMC) were seeded in 24 well plates and cultured in DMEM containing 10% fetal calf serum (Gibco lifesciences, Karlsruhe), Penicillin (Gibco lifesciences, Karlsruhe, 100 U/ml) Streptomycin (Gibco lifesciences, Karlsruhe, 100 U/ml) to confluency. […] The incubation is stopped by rinsing cells with PBS and immediate lysis of cells with HCl (0.1N) containing 3-isobutyl 1-methyl xanthine (500 μM) to block further hydrolysis of cAMP. Lysed cells were centrifuged and the supernatants assayed for cAMP using an commercially available cyclic AMP ELISA (Assay Designs, Inc., Michigan, distribution by Bio Trend, Köln).

[1] = tested on: monocytes after LPS stimulation; assay: Nitrite (NO) production by monocytes/macrophages after LPS stimulation; assay type: cell-based, human; conditions: for Nitrit +/− SD: LPS 100 nM + peptide 100 nM, 24 hours, no LPS 48, LPS alone 75; for anti-inflammatory response (NO production) on simultaneous incubation with LPS: after 24 hours, analogues compared with VIP
Protocol: Peripheral blood mononuclear cells were isolated from whole venous blood from 12 stable COPD patients and 12 healthy probands by Ficoll density gradient centrifugation. Monocytes were differentiated in RPMI-1640 medium supplemented with 5% FCS, antibiotics and 10^−8 M 1,25-dihydroxycholecalciferol (Sigma) in a humidified atmosphere with 5% CO2 at 37° C.
For infection simulation, macrophage stimulation and experimental in vivo treatment the differentiated cells were incubated either with LPS, with LPS and SEQ ID No.:1 (VIP) or SEQ ID No.:2 (A-15) or SEQ ID No.:3 (A-18), or with medium alone for control.
To test the hypothesis whether or not the macrophages utilize the VIP-signaling pathway to modulate and limit the immune response, the inflammation reaction in vitro was stimulated and NO (produced by iNOS) production by the cells was measured under inflammation and under in vitro therapy with VIP and the peptides according to the invention (SEQ ID Nos 2 and 3). NOS increased dramatically by LPS after 24 hours. […] This anti-inflammatory response was better by both VIP-analogues according to SEQ ID Nos. 2 and 3.

COPD patients = assay: Phase II double-blind, randomized, placebo-controlled clinical trial of inhaled VIP in COPD; conditions: VIP (n = 15)
Protocol: Chronic obstructive pulmonary disease (COPD) is characterised by progressive airflow limitation associated with chronic inflammation. […] The efficacy and safety of VIP in patients was assessed with moderate to severe COPD.
The present double-blind, randomized, placebo-controlled study was undertaken in an outpatient setting. COPD patients (n=34) were randomly assigned VIP 50 μg (n=17), or placebo (n=17), given per inhalation, 4 times daily for 12 weeks. VIP serum concentration was measured in all patients. Primary outcomes were health-related quality of life and exercise capacity. Secondary outcomes included the lung function parameters and COPD exacerbations.

Molecule | cyclic AMP content of PASMC, effect in words (PASMC) | cAMP +/− SD (PASMC; peptide 1 nM + IBMX 500 μM) | cAMP +/− SD (PASMC; peptide 1 nM, without IBMX) | cAMP +/− SD (PASMC; peptide 10 nM + IBMX 500 μM) | cAMP +/− SD (PASMC; peptide 10 nM, without IBMX) | cAMP +/− SD (PASMC; peptide 100 nM + IBMX 500 μM) | cAMP +/− SD (PASMC; peptide 100 nM, without IBMX) | Nitrit +/− SD [1] | anti-inflammatory response (NO production) on simultaneous incubation with LPS [1] | further results
C=C[C@@]1(C)CC(=O)[C@]2(O)[C@@]3(C)[C@@H](O)CCC(C)(C)[C@@H]3[C@H](O)[C@H](OC(C)=O)[C@@]2(C)O1 [Forskolin, reference compound] |  |  |  |  |  |  |  |  |  | cAMP +/− SD (PASMC; Forskolin 10 μM + IBMX 500 μM): 41.10 pmol/mL and 47.81 pmol/mL and 58.00 pmol/mL
His (Ac)-Ser-Asp-Ala-Val-Phe-Thr-Asp-Asn-Tyr-Thr-Arg-Leu-Arg-Lys-Gln-Met (O)-Ala-Val-Lys-Lys-Tyr-Leu-Asn-Ser-Ile-Leu-Asn [Pep - 15] | Higher increase | 26.45 pmol/mL | 13.30 pmol/mL | 27.00 pmol/mL | 16.30 pmol/mL | 36.67 pmol/mL | 23.30 pmol/mL | 16 µmol | better | 
His (Ac)-Ser-Asp-Ala-Val-Phe-Thr-Asp-Asn-Tyr-Thr-Arg-Leu-Arg-Lys-Gln-Met-Ala-Val-Lys-Lys-Tyr-Leu-Asn-Ser-Val-Leu-Asn ({Ac-H2N}-SDAVFTDNYTRLRKQMAVKKYLNSVLN; not fully specified (residue 16); printed as His (Ac)-Ser-Asp-Ala-Val-Phe-Thr-Asp-Asn-Tyr-Thr-Arg-Leu-Arg-Lys-Gln-Met-Ala-Val-Lys-Lys-Tyr-Leu-Asn-Ser-Val-Leu-Asn) [Pep - 18] | Higher increase | 36.66 pmol/mL | 14.83 pmol/mL | 37.00 pmol/mL | 19.45 pmol/mL | 46.42 pmol/mL | 28.43 pmol/mL | 19 µmol | better | 
CC[C@H](C)[C@H](NC(=O)[C@H](CO)NC(=O)[C@H](CC(N)=O)NC(=O)[C@H](CC(C)C)NC(=O)[C@H](Cc1ccc(O)cc1)NC(=O)[C@H](CCCCN)NC(=O)[C@H](CCCCN)NC(=O)[C@@H](NC(=O)[C@H](C)NC(=O)[C@H](CCSC)NC(=O)[C@H](CCC(N)=O)NC(=O)[C@H](CCCCN)NC(=O)[C@H](CCCN=C(N)N)NC(=O)[C@H](CC(C)C)NC(=O)[C@H](CCCN=C(N)N)NC(=O)[C@@H](NC(=O)[C@H](Cc1ccc(O)cc1)NC(=O)[C@H](CC(N)=O)NC(=O)[C@H](CC(=O)O)NC(=O)[C@@H](NC(=O)[C@H](Cc1ccccc1)NC(=O)[C@@H](NC(=O)[C@H](C)NC(=O)[C@H](CC(=O)O)NC(=O)[C@H](CO)NC(=O)[C@@H](N)Cc1c[nH]cn1)C(C)C)[C@@H](C)O)[C@@H](C)O)C(C)C)C(=O)N[C@@H](CC(C)C)C(=O)N[C@@H](CC(N)=O)C(N)=O [VIP] |  |  |  |  |  |  |  |  |  | Adverse events: COPD exacerbation, number (COPD patients): 8; Adverse events: COPD exacerbation, percent (COPD patients): (53.3%); Adverse events: Diarrhoea NOS, number (COPD patients): 0; Adverse events: Diarrhoea NOS, percent (COPD patients): (0%); Adverse events: Nasopharyngitis, number (COPD patients): 0; Adverse events: Nasopharyngitis, percent (COPD patients): (0%); Adverse events: Nausea, number (COPD patients): 0; Adverse events: Nausea, percent (COPD patients): (0%); Adverse events: Upper respiratory tract infection, number (COPD patients): 1; Adverse events: Upper respiratory tract infection, percent (COPD patients): (6.7%)
CC(C)Cn1c(=O)n(C)c(=O)c2[nH]cnc21 [IBMX, 3-isobutyl 1-methyl xanthine, reference compound] |  |  |  |  |  |  |  |  |  | cAMP +/− SD (PASMC; IBMX 500 μM alone): 16.37 pmol/mL and 17.16 pmol/mL and 15.91 pmol/mL
